The text below walks through data of US7250492B2, “Compositions and methods for inhibition of cancer invasion and angiogenesis” (The Research Foundation at State University of New York, priority 2000, dated 2007).

For assay [1], the target named is DPPIV (Homo sapiens, UniProt P27487). The following applies: reversible DPPIV inhibitor; cited from earlier work.
Assay [2] has as its target T1, seprase (Homo sapiens, UniProt Q12884).
T1 sequence (Q12884 1-760): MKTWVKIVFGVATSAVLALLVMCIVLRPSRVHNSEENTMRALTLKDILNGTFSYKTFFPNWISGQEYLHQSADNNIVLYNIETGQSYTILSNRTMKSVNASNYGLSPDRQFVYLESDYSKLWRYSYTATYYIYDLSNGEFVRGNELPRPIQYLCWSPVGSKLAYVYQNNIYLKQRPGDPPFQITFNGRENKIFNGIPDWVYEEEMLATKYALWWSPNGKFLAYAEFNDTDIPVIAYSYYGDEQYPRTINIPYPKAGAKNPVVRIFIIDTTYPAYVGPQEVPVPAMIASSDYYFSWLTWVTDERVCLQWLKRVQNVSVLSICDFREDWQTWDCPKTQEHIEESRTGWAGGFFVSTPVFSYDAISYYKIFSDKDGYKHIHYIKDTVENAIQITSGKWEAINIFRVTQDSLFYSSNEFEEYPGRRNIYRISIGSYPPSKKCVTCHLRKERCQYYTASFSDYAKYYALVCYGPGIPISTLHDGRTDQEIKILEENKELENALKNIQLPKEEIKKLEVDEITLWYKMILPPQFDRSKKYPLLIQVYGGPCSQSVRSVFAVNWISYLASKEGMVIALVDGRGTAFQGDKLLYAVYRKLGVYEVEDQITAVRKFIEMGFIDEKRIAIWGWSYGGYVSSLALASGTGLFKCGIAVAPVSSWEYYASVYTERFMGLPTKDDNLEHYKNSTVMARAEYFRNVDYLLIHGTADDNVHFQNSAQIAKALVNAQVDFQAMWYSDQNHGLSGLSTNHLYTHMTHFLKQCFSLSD
The conditions noted are these: cited from earlier work.

The target in assay [3] is T2, seprase-DPPIV complex (Homo sapiens, UniProt P27487+Q12884).
T2 construct: The seprase-DPPIV complex was isolated from WI38 RIPA extracts using mAbs D28; endogenous in cells; host or cells: WI38 human fibroblasts (RIPA extract, immuno-isolated on mAb D28 or E3 beads)
T2 sequence (P27487 whole entry, one chain of several): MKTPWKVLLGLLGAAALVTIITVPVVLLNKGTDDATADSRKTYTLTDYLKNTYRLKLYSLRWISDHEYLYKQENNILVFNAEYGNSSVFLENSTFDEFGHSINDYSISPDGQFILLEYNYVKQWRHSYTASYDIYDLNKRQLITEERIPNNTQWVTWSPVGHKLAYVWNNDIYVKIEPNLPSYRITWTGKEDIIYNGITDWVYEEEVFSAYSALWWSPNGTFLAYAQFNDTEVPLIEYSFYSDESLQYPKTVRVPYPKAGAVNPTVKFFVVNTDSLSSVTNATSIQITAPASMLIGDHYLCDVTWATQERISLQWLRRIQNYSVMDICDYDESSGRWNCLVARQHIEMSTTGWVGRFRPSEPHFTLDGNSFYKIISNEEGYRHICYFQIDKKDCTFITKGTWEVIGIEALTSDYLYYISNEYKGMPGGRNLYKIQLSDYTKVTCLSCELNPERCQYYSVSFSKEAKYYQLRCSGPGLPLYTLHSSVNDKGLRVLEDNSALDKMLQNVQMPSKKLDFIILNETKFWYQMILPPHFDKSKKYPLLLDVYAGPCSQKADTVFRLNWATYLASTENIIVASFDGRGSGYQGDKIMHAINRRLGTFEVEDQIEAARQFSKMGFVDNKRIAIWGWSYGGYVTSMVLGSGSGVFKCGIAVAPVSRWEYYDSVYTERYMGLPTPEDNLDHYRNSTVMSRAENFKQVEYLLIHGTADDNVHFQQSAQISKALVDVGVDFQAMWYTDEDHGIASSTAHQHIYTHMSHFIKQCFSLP
The experiment in a line: collagen-degrading activity: peptide release from biotinylated type I collagen gel. Type of assay: biochemical. The following applies: 37° C., 8 h; mAb 5 μg/ml, AEBSF 20 μM, CG1847 50 nM. Here is the method: FIG. 9. Collagen-degrading activity of the seprase-DPPIV complex. Collagen-degrading activities of the protease complex and purified DPPIV were determined by the release of peptide fragments from biotinylated type I collagen gel in the presence of these enzymes. The seprase-DPPIV complex was isolated from WI38 RIPA extracts using mAbs D28 (lane marked Ip Seprase) and E3 (lane marked Ip DPPIV) beads, seprase from LOX WGA fraction using mAb D28 (lane marked Ip Seprase*), MMP-2 from media conditioned by MMP-2 COS cell transfectants (lane marked MMP-2), and proteins associated with β3 integrin were from WI38 RIPA extracts using HB242 (lane marked Ip β3 integrin). All enzymes, including the protease complex, purified seprase, MMP-2, and proteins associated with β1 or β3 integrin were applied at the concentration of 50 ng/ml. […]
Collagen-degrading activity of isolated DPPIV or seprase-DPPIV complex was determined by the release of peptide fragments from biotinylated type I collagen gel by immuno-isolated proteases or the protease complex. […]

SMILES strings stand for the structures.

DPPIV, sequence (P27487 whole entry, species assumed): as the sequence (P27487 whole entry, one chain of several) above

Broadly, the Ki is a dissociation constant, usually derived from enzyme kinetics or from competition with a known ligand. As for `NC(CCC(=O)NOC(=O)c1ccccc1)C(=O)N1CCCC1` (stereo not shown) [H-Glu(NHO-Bz)-Pyrr], the Ki in assay [1] is 0.5 µM.

Turning to `O=S(=O)(F)Cc1ccccc1` [PMSF], in assay [2], the “inhibition of seprase activity” value was “inhibits” and the seprase gelatinase activity entry is “completely blocked”. `CCN1C(=O)C=CC1=O` [NEM]: the “inhibition of seprase activity” value in assay [2] is “inhibited”. Turning to `N=C(N)c1ccc(CS(=O)(=O)F)cc1` [APSF], the seprase gelatinase activity result in assay [2] was “completely blocked”. As to `NCCc1ccc(S(=O)(=O)F)cc1` [AEBSF], the “degradation of collagen by the seprase-DPPIV complex” value in assay [3] was “blocked”. For the same compound, the seprase gelatinase activity entry in assay [2] is given as “completely blocked”.
